Measured values as given in patent US20230293526A1, “METHOD FOR TREATING CANCER WITH A REVERSE TRANSCRIPTASE INHIBITOR” (PrimeFour Therapeutics, Inc., priority 2020, published 2023).

Key:
Test in all cases: Cell proliferation CellTiterGlo Ex.2
Assay type in all cases: cell-based
[1] = tested on: HCC 1569; conditions: Homo sapiens, HCC1569; HCC 1569 (Breast), 72 h
Protocol: (§1) A dose response relationship on cell proliferation was assessed for Compound 13 on 140 tumor cell lines. Briefly, compound treatment of cells started one day after seeding with a final DMSO concentration of 0.100, and was performed by nanodrop-dispensing using a Tecan Dispenser. 0.10% DMSO (solvent) and Staurosporine (10 μM) served as high control (10000 viability) and low control (000 viability), respectively. Compound 13 was tested at 10, 3, 1, 0.3, 0.1, 0.03, 0.01, and 0.003 μM.
(§2) Cells were cultured in the appropriate media. For the assays, cells were seeded in white cell culture-treated flat and clear bottom multiwell plates and incubated at 37° C. overnight before compound was added. After incubation for 72 h at 37° C. at 5% or 10% CO2 dependent on the medium, cell plates were equilibrated to room temperature for one hour, CellTiterGlo reagent (Promega) was added and luminescence was measured approximately an hour later using a luminometer.
(§3) Raw data were converted into percent cell viability relative to the high and low control, which were set to 10000 and 000, respectively.

[2] = tested on: COV434; conditions: COV434 (Ovary), 72 h
Protocol: as §1, §2, §3

[3] = tested on: MV4-11; conditions: Homo sapiens; MV4-11 (Blood), 72 h
Protocol: as §1, §2, §3

[4] = tested on: NCI-H82; conditions: Homo sapiens; NCI-H82 (Lung), 72 h
Protocol: as §1, §2, §3

[5] = tested on: Calu-6; conditions: Homo sapiens; Calu-6 (Lung), 72 h
Protocol: as §1, §2, §3

[6] = tested on: EFM-19; conditions: Homo sapiens; EFM-19 (Breast), 72 h
Protocol: as §1, §2, §3

[7] = tested on: MEC-1; conditions: Homo sapiens, MEC1; MEC-1 (Blood), 72 h
Protocol: as §1, §2, §3

[8] = tested on: A431; conditions: Homo sapiens, A-431; A431 (Skin), 72 h
Protocol: as §1, §2, §3

[9] = tested on: RERF-LC-MS; conditions: RERF-LC-MS (Lung), 72 h
Protocol: as §1, §2, §3

[10] = tested on: RERF-LC-Ad2; conditions: RERF-LC-Ad2 (Lung), 72 h
Protocol: as §1, §2, §3

[11] = tested on: Ishikawa; conditions: Homo sapiens; Ishikawa (Endometrium), 72 h
Protocol: as §1, §2, §3

[12] = tested on: HCC202; conditions: HCC202 (Breast), 72 h
Protocol: as §1, §2, §3

[13] = tested on: OPM-2; conditions: Homo sapiens; OPM-2 (Blood), 72 h
Protocol: as §1, §2, §3

[14] = tested on: Hep3B2.1-7; conditions: Hep3B2.1-7 (Liver), 72 h
Protocol: as §1, §2, §3

[15] = tested on: Mia PaCA 2; conditions: Homo sapiens; Mia PaCA 2 (Pancreas), 72 h
Protocol: as §1, §2, §3

[16] = tested on: T98G; conditions: Homo sapiens; T98G (Brain), 72 h
Protocol: as §1, §2, §3

[17] = tested on: NCI-H1437; conditions: Homo sapiens; NCI-H1437 (Lung), 72 h
Protocol: as §1, §2, §3

[18] = tested on: SW620; conditions: Homo sapiens, SW-620; SW620 (Colon), 72 h
Protocol: as §1, §2, §3

[19] = tested on: SK-ES-1; conditions: Homo sapiens, SK-ES1; SK-ES-1 (Bone), 72 h
Protocol: as §1, §2, §3

[20] = tested on: M07e; conditions: M-07e; M07e (Blood), 72 h
Protocol: as §1, §2, §3

[21] = tested on: T-47D; conditions: Homo sapiens, T47D; T-47D (Breast), 72 h
Protocol: as §1, §2, §3

[22] = tested on: NCI-H2286; conditions: Homo sapiens; NCI-H2286 (Lung), 72 h
Protocol: as §1, §2, §3

[23] = tested on: AsPC-1; conditions: Homo sapiens, ASPC1; AsPC-1 (Pancreas), 72 h
Protocol: as §1, §2, §3

[24] = tested on: Kato III; conditions: Homo sapiens; Kato III (Stomach), 72 h
Protocol: as §1, §2, §3

[25] = tested on: SW-1783; conditions: Homo sapiens, SW1783; SW-1783 (Brain), 72 h
Protocol: as §1, §2, §3

[26] = tested on: NCI-H2009; conditions: Homo sapiens; NCI-H2009 (Lung), 72 h
Protocol: as §1, §2, §3

[27] = tested on: H1299; conditions: Homo sapiens, NCI-H1299; H1299 (Lung), 72 h
Protocol: as §1, §2, §3

[28] = tested on: K562; conditions: Homo sapiens; K562 (Blood), 72 h
Protocol: as §1, §2, §3

[29] = tested on: HCT116; conditions: Homo sapiens, HCT-116; HCT116 (Colon), 72 h
Protocol: as §1, §2, §3

[30] = tested on: T84; conditions: Homo sapiens; T84 (Colon), 72 h
Protocol: as §1, §2, §3

[31] = tested on: SNU-216; conditions: SNU-216 (Stomach), 72 h
Protocol: as §1, §2, §3

[32] = tested on: COR-L279; conditions: Homo sapiens; COR-L279 (Lung), 72 h
Protocol: as §1, §2, §3

[33] = tested on: JVM-3; conditions: Homo sapiens; JVM-3 (Blood), 72 h
Protocol: as §1, §2, §3

## C#C[C@]1(CO)O[C@@H](n2cnc3c(=O)[nH]c(N)nc32)C[C@@H]1O [compound 13]
[1]
  IC50: > 10 µM
[2]
  IC50: 4.41 µM
[3]
  IC50: 0.21 µM
[4]
  IC50: 6.46 µM
[5]
  IC50: > 10 µM
[6]
  IC50: 2.65 µM
[7]
  IC50: 9.85 µM
[8]
  IC50: 5.06 µM
[9]
  IC50: > 10 µM
[10]
  IC50: 2.58 µM
[11]
  IC50: 6.07 µM
[12]
  IC50: > 10 µM
[13]
  IC50: > 10 µM
[14]
  IC50: 0.82 µM
[15]
  IC50: > 10 µM
[16]
  IC50: > 10 µM
[17]
  IC50: > 10 µM
[18]
  IC50: 7.21 µM
[19]
  IC50: 4.99 µM
[20]
  IC50: 4.07 µM
[21]
  IC50: > 10 µM
[22]
  IC50: 5.69 µM
[23]
  IC50: > 10 µM
[24]
  IC50: 4.86 µM
[25]
  IC50: 2.25 µM
[26]
  IC50: 1.23 µM
[27]
  IC50: 7.68 µM
[28]
  IC50: > 10 µM
[29]
  IC50: 5.84 µM
[30]
  IC50: > 10 µM
[31]
  IC50: 1.74 µM
[32]
  IC50: > 10 µM
[33]
  IC50: 2.45 µM
